Laboratory results published in ChEMBL document CHEMBL3045007, “Aryloxyacetic esters structurally related to -Asarone as potential antifungal agents” (2010).
Converted amounts (≈) assume the structure as drawn. The source made the active and inactive calls. The rule behind the calls is not given here.

Assays:
[1] = tested on: Cryptococcus gattii species complex; experiment: Antifungal activity against Cryptococcus gattii after 48 hr by broth microdilution method; format: functional, Cryptococcus bacillisporus; conditions: for MIC50: Cryptococcus gattii species complex, 48 h
[2] = tested on: Cryptococcus deneoformans; experiment: Antifungal activity against Cryptococcus neoformans var. neoformans after 48 hr by broth microdilution method; format: functional; conditions: for MIC50: Cryptococcus deneoformans, 48 h

Row | Compound | MFC>99 [1] [µg/mL] | MIC50 [1] [µg/mL] | MIC50 [2] [µg/mL] | MFC>99 [2] [µg/mL] | Activity ([1]; Cryptococcus bacillisporus) | Activity [2]
1 | COc1cc(C)ccc1OCC(=O)OC(C)C | 0.25 (≈ 1.05 µM) | 0.25 (≈ 1.05 µM) | 64 (≈ 269 µM) | – | – | –
2 | CCCOC(=O)COc1cccc(OC)c1 | – | 64 (≈ 285 µM) | 0.5 (≈ 2.23 µM) | >64 | – | –
3 | CC[C@H](C)C[C@H](C)CCCCCCCCC(=O)N[C@H]1C[C@@H](O)[C@@H](NCCN)NC(=O)[C@@H]2[C@@H](O)CCN2C(=O)[C@H]([C@H](O)CCN)NC(=O)[C@H]([C@H](O)[C@@H](O)c2ccc(O)cc2)NC(=O)[C@@H]2C[C@@H](O)CN2C(=O)[C@H]([C@@H](C)O)NC1=O [CASPOFUNGIN] | – | 16 (≈ 14.6 µM) | 8 (≈ 7.32 µM) | – | – | –
4 | CCCCCOC(=O)COc1ccccc1OC | – | 64 (≈ 254 µM) | 16 (≈ 63.4 µM) | >64 | – | –
5 | CCC(C)n1ncn(-c2ccc(N3CCN(c4ccc(OCC5COC(Cn6cncn6)(c6ccc(Cl)cc6Cl)O5)cc4)CC3)cc2)c1=O (stereo not given) [ITRACONAZOLE] | – | 0.03 (≈ 0.0425 µM) | 0.03 (≈ 0.0425 µM) | – | – | –
6 | Cc1ccc(OCC(=O)OC(C)C)cc1 [ISOPROPYL 4-METHYLPHENOXYACETATE] | – | 128 (≈ 615 µM) | 8 (≈ 38.4 µM) | >64 | – | –
7 | OC(Cn1cncn1)(Cn1cncn1)c1ccc(F)cc1F [FLUCONAZOLE] | – | 4 (≈ 13.1 µM) | 4 (≈ 13.1 µM) | – | – | –
8 | CC(=O)N1CCN(c2ccc(OCC3COC(Cn4ccnc4)(c4ccc(Cl)cc4Cl)O3)cc2)CC1 (stereo not given) [KETOCONAZOLE] | – | 0.06 (≈ 0.113 µM) | 0.12 (≈ 0.226 µM) | – | – | –
9 | COC(=O)COc1ccccc1OC | – | 128 (≈ 652 µM) | 0.5 (≈ 2.55 µM) | >64 | – | –
10 | CCCOC(=O)COc1ccc(C)cc1OC | – | 0.25 (≈ 1.05 µM) | 2 (≈ 8.39 µM) | – | Active | Active
11 | COc1cc(C)ccc1OCC(=O)Oc1ccc(Cl)cc1 | 0.5 (≈ 1.63 µM) | 0.5 (≈ 1.63 µM) | 0.25 (≈ 0.815 µM) | 0.25 (≈ 0.815 µM) | – | –
12 | CCCCCOC(=O)COc1ccc(C)cc1OC | 0.5 (≈ 1.88 µM) | 0.5 (≈ 1.88 µM) | 32 (≈ 120 µM) | – | – | –
13 | C[C@@H]1[C@H](O)[C@@H](C)/C=C/C=C/C=C/C=C/C=C/C=C/C=C/[C@H](O[C@@H]2O[C@H](C)[C@@H](O)[C@H](N)[C@@H]2O)C[C@@H]2O[C@](O)(C[C@@H](O)C[C@@H](O)[C@H](O)CC[C@@H](O)C[C@@H](O)CC(=O)O[C@H]1C)C[C@H](O)[C@H]2C(=O)O [AMPHOTERICIN B] | – | 0.12 (≈ 0.13 µM) | 0.12 (≈ 0.13 µM) | – | – | –
14 | CCCCCOC(=O)COc1ccccc1 [N-AMYL PHENOXYACETATE] | 2 (≈ 9 µM) | 2 (≈ 9 µM) | 16 (≈ 72 µM) | 64 (≈ 288 µM) | – | –
